Counter-ions that a name gives are not always drawn.
Columns and labels:
XMRV [1] = experiment: XMRV replication in LNCaP cells (viral release by RT activity in supernatant); type: cell-based; conditions: for EC50: read-out: EC50 in LNCaP cells; for EC90: read-out: EC90 in LNCaP cells; for inhibition at 100 µM: read-out: inhibition of XMRV replication
Experimental: (§1) We tested a total of 45 compounds belonging to different classes of HIV-1 inhibitors, and a few inhibitors of viruses other than retroviruses, for their ability to inhibit XMRV replication in cultured cells. LNCaP and MCF-7 cells were chosen for their ability to support robust in vitro replication of XMRV. […] To determine if a reduction in viral release might be due to toxicity of the compound and not due to specific antiretroviral activity, cellular morphology was monitored every 24 h by microscopic examination, and an MTT [3-(4,5-dimethylthiazol-2-yl)-2,5-diphenyltetrazolium bromide] colorimetric assay was used to measure potential cytotoxicity produced by the compounds. Supernatants were collected every 24 h and assayed for viral release by measuring RT activity. […] For comparison purposes, all compounds evaluated in these studies were also tested against HIV-1LAI in primary human lymphocytes.
Viral release from XMRV-infected LNCaP cells in the presence of increasing concentrations of (A) ZDV (B) TDF (C) RAL and (D) L-000870812, was determined by measuring RT activity in the supernatants. […] Cell viability was checked by microscopy, quantified by the MTT assay, and represented by shaded bars. Data for each compound were derived from an average of at least three independent experiments, each performed in duplicate.
293T cells (ATCC, CRL-11268) were transfected with pXMRV1, an infectious clone of XMRV [2]. Virus released in the supernatant was harvested and titrated by inoculating MCF-7 cells, a breast cancer cell line (ATCC, HTB-22) at 70% confluence, with a series of ten-fold dilutions of XMRV in serum-free medium, followed 36–48 hrs later by fixation of cells in paraformaldehyde and processing for immunofluorescence using a rabbit antiserum developed against inactivated XMRV [2]. […] Virus was diluted in serum-free medium and used to inoculate cells at a multiplicity of infection (MOI) of approximately 3, in the presence of various antiviral compounds as described below. LNCaP, a prostate cancer cell line (ATCC, CRL-1740) and MCF-7 cells were grown to about 50% confluence in DMEM containing 10% heat inactivated fetal bovine serum, […]. Cells were washed twice with Dulbecco's phosphate buffered saline (DPBS, Gibco), and incubated with the viral inoculum for 90 min at 37°C in the presence of 95% air and 5% CO2, cells were washed twice with DPBS, detached with Trypsin-EDTA (0.25% Trypsin; Cellgro), and counted. One thousand cells were added to each well of a 96-well plate, along with an equal volume of medium containing the retroviral inhibitor at 2-fold the desired concentration. […] For controls, wells containing water or DMSO at appropriate concentrations were used.
(§2) Each well was carefully monitored for signs of cellular toxicity due to the inhibitors by microscopic observation every 24 h. In addition, cell viability was measured using the CellTiter 96 AQueous One Solution cell proliferation assay according to the manufacturer (Promega, Madison, Wis). Viral release from the cells was assayed by measuring RT activity in the supernatant. For this, supernatant from each well was collected every 24 h and frozen at −20°C until it was analyzed by RT assay for viral release as described previously. In brief, oligo(dT)·poly(rA) primer-template assays were performed in the presence of radiolabeled [α-^32P]dTTP and Mn^2+. After incubating the viral supernatants with the RT reaction mix for 1 h at 37°C, samples were spotted onto DE81 DEAE cellulose paper (Whatman) and unincorporated label washed away with 2× SSC (1× SSC = 0.15 M NaCl and 0.015 M sodium citrate).

MCF-7 cells = experiment: Cytotoxicity in MCF-7 cells (MTT / CellTiter 96 AQueous One); type: cell-based, human
Experimental: as §1
as §2, with “citrate). […] Inhibition of viral release as measured on day 6 after inoculation was averaged over 3–5 experiments and plotted. The antiviral EC50 and cytotoxic concentrations (CC50,) was determined from the concentration–response curve using the median effect method. HIV-1 replication assays were performed as described previously using peripheral blood mononuclear cells (PBMC) obtained from the American Red Cross, Atlanta, GA, that were stimulated with phytohemagglutinin (PHA) for 72 hr.” for “citrate).”

HIV-1LAI = experiment: HIV-1 replication in PHA-stimulated peripheral blood mononuclear cells; type: cell-based; conditions: Human immunodeficiency virus 1, PBMC; for EC50: read-out: HIV-1 in PBM cells EC50; for EC90: read-out: HIV-1 in PBM cells EC90
Experimental: as §1
as §2, with “citrate). […] Inhibition of viral release as measured on day 6 after inoculation was averaged over 3–5 experiments and plotted. The antiviral EC50 and cytotoxic concentrations (CC50,) was determined from the concentration–response curve using the median effect method. HIV-1 replication assays were performed as described previously using peripheral blood mononuclear cells (PBMC) obtained from the American Red Cross, Atlanta, GA, that were stimulated with phytohemagglutinin (PHA) for 72 hr.” for “citrate).”

[2] = Cytotoxicity in PBM cells; type: cell-based; conditions: human, read-out: HIV-1 in PBM cells CC50
Experimental: as §2, with “citrate). […] Inhibition of viral release as measured on day 6 after inoculation was averaged over 3–5 experiments and plotted. The antiviral EC50 and cytotoxic concentrations (CC50,) was determined from the concentration–response curve using the median effect method. HIV-1 replication assays were performed as described previously using peripheral blood mononuclear cells (PBMC) obtained from the American Red Cross, Atlanta, GA, that were stimulated with phytohemagglutinin (PHA) for 72 hr.” for “citrate).”

[3] = Cytotoxicity in MCF-7 cells (MTT / CellTiter 96 AQueous One); type: cell-based, human; conditions: human
Experimental: as §1
as §2, with “citrate). […] Inhibition of viral release as measured on day 6 after inoculation was averaged over 3–5 experiments and plotted. The antiviral EC50 and cytotoxic concentrations (CC50,) was determined from the concentration–response curve using the median effect method. HIV-1 replication assays were performed as described previously using peripheral blood mononuclear cells (PBMC) obtained from the American Red Cross, Atlanta, GA, that were stimulated with phytohemagglutinin (PHA) for 72 hr.” for “citrate).”

XMRV [4] = experiment: XMRV replication in MCF-7 cells (viral release by RT activity in supernatant); type: cell-based; conditions: for EC50 / EC90: MCF7, 144 h; for EC50: read-out: XMRV in MCF-7 cells EC50; for EC90: read-out: XMRV in MCF-7 cells EC90; for therapeutic index (TI, the ratio of CC50/EC50): XMRV, MCF-7 cells; for activity against XMRV (in words): tested up to 100 µM, Figure 1
[5] = MCF-7 cells, read-out: XMRV in MCF-7 cells CC50
[6] = XMRV-infected MCF-7 cells, RT activity in supernatant, day 6
[7] = peripheral blood mononuclear (PBM) cells

Compound | EC50 (HIV-1LAI) [µM] | EC90 (HIV-1LAI) [µM] | CC50 [3, 5] [µM] | CC50 [2, 7] [µM] | EC50 (XMRV [4]) [µM] | EC90 (XMRV [4]) [µM] | CC50 [3] [µM] | other results
Nc1nc2c(ncn2[C@H]2C=C[C@@H](CO)C2)c(=O)[nH]1 [(-)-carbovir (CBV), (-)-carbovir] | – | – | – | – | – | – | – | inhibition of XMRV replication (XMRV [1]; 100 µM, see Table S1 (cell line not given)): greater than 70%; CC50 (MCF-7 cells): > 100 µM
Cc1nnc(C(=O)NC(C)(C)c2nc(C(=O)NCc3ccc(F)cc3)c(O)c(=O)n2C)o1 [Raltegravir (RAL, MK-0518), Raltegravir] | 0.0014 | 0.0089 | 92.3 | – | – | – | – | EC50 (XMRV [1]; XMRV-infected LNCaP cells): 0.03 µM; EC90 (XMRV [1]; XMRV-infected LNCaP cells): 0.46 µM; CC50 [2]: > 100 µM; EC50 (XMRV [4]; [6]): 0.005 µM; EC90 (XMRV [4]; [6]): 3.5 µM; therapeutic index (TI, the ratio of CC50/EC50) (XMRV [4]): 18,460
Cc1cn([C@H]2C=C[C@@H](CO)O2)c(=O)[nH]c1=O [Stavudine (D4T), Stavudine] | 0.09 | 0.49 | > 100 | > 100 | 75.6 | > 100 | – | inhibition at 100 µM (XMRV [1]; LNCaP): > 70%
Cc1cn([C@H]2C[C@H](F)[C@@H](CO)O2)c(=O)[nH]c1=O [3'-Fluoro-3'-deoxythymidine (FLT), 3'-Fluoro-3'-deoxythymidine] | 0.00018 | 0.005 | – | 13.8 | 7.9 | > 100 | 75.8 | inhibition at 100 µM (XMRV [1]; LNCaP): > 70%
Nc1ccn([C@H]2C=C[C@@H](CO)O2)c(=O)n1 [D4C] | – | – | – | – | – | – | – | CC50 (MCF-7 cells): > 100 µM
Cc1cn([C@H]2C[C@H](N=[N+]=[N-])[C@@H](CO)O2)c(=O)[nH]c1=O [3'-Azido-3'-deoxythymidine (ZDV), 3'-Azido-3'-deoxythymidine] | 0.0052 | 0.036 | – | > 100 | 0.11 | 7.3 | 65 | EC50 (XMRV [1]; LNCaP): 0.14 µM; EC90 (XMRV [1]; LNCaP): 1.1 µM; therapeutic index (TI, the ratio of CC50/EC50) (XMRV [4]): 591
CC(C)OC(=O)OCOP(=O)(CO[C@H](C)Cn1cnc2c(N)ncnc21)OCOC(=O)OC(C)C [Tenofovir disoproxil fumarate (TDF), Tenofovir disoproxil fumarate] | 0.016 | 0.18 | – | 17.8 | 0.24 | 15.3 | 52.2 | EC50 (XMRV [1]; LNCaP): 0.9 µM; EC90 (XMRV [1]; LNCaP): 4.2 µM; therapeutic index (TI, the ratio of CC50/EC50) (XMRV [4]): 218
Nc1ccn(C[C@@H](CO)OCP(=O)(O)O)c(=O)n1 [Vistide (HPMPC), Vistide] | > 100 | > 100 | > 100 | > 100 | 85.3 | > 100 | – | –
Nc1nc2c(ncn2CCC(CO)CO)c(=O)[nH]1 [Penciclovir (PCV), Penciclovir] | > 100 | > 100 | – | > 100 | > 100 | > 100 | 98.1 | –
Nc1nc2c(ncn2C2COC(CO)O2)c(=O)[nH]1 [9-(β-D-1,3-Dioxolan-4-yl)guanine (DXG), 9-(β-D-1,3-Dioxolan-4-yl)guanine] | – | – | – | – | – | – | – | CC50 (MCF-7 cells): > 100 µM; activity against XMRV (in words) (XMRV [4]): essentially inactive
Nc1nc(NC2CC2)c2ncn([C@H]3C=C[C@@H](CO)C3)c2n1 [Abacavir] | 0.17 | 1.7 | 92.6 | 92.9 | > 100 | > 100 | – | –
CC(C)(C)NC(=O)[C@@H]1C[C@@H]2CCCC[C@@H]2CN1C[C@@H](O)[C@H](Cc1ccccc1)NC(=O)[C@H](CC(N)=O)NC(=O)c1ccc2ccccc2n1 [Saquinavir] | 0.0064 | 0.021 | – | 26.7 | > 100 | > 100 | 53.7 | activity against XMRV (in words) (XMRV [4]): essentially ineffective

From PMC2848589, “Raltegravir Is a Potent Inhibitor of XMRV, a Virus Implicated in Prostate Cancer and Chronic Fatigue Syndrome” (PLoS ONE, 2010)
